Assay results published in the NIST ThermoML archive (doi:10.1021/acs.jced.8b00888).
Numbers after ± are expanded uncertainties.

Key:
[1] = Crystal; DTA
[2] = Molar enthalpy of transition or fusion; conditions: Crystal; DSC

Normal melting temperature [1]: 85.40 ± 1.1 °C
Molar enthalpy of transition or fusion [2]: 3.92 ± 0.406 kcal/mol
Compound: Cc1nc(C)c(C)nc1C [tetramethylpyrazine]
